# Values of other authors, collected in US20080300217A1, “Combination Therapy with Fumaric Acid Esters for the Treatment of Autoimmune and/or Inflammatory Disorders” (ADITECH PHARMA AB, priority 2005, published 2008).
# Settings: pentoxifylline added to the standard Fumaderm treatment; psoriasis patients
smiles,measurement,value
CC(=O)CCCCn1c(=O)c2c(ncn2C)n(C)c1=O [pentoxifylline],flush symptoms in patients,reduced the flush symptoms in patients
